Experimental data as given in the NIST ThermoML archive (doi:10.1021/je9000697).

Experiment: wn = mass fraction of the nth substance listed
Conditions: 101 kPa, Liquid

OCCO [1,2-ethanediol] + O
Conditions | mass density, 298.15 K [kg/m3] | mass density, 303.15 K [kg/m3] | mass density, 308.15 K [kg/m3] | mass density, 318.15 K [kg/m3] | viscosity, 298.15 K [mPa·s] | viscosity, 303.15 K [mPa·s] | viscosity, 308.15 K [mPa·s] | viscosity, 318.15 K [mPa·s]
w1 = 0.1 | 1009.49 | 1007.62 | 1005.57 | 1002.73 | 1.152 | 1.017 | 0.9078 | 0.7381
w1 = 0.2 | 1022.45 | 1020.98 | 1018.5 | 1014.28 | 1.469 | 1.306 | 1.149 | 0.9243
w1 = 0.3 | 1035.7 | 1034.05 | 1031.66 | 1026.73 | 1.903 | 1.657 | 1.462 | 1.164
w1 = 1 | – | 1104.47 | 1100.13 | 1092.15 | 18.64 | 13.86 | 11.66 | 7.453
